Test results taken from patent EP4559923A1, “ANTIHISTAMINE COMPOUND, AND PREPARATION METHOD THEREFOR AND USE THEREOF” (HC Synthetic Pharmaceutical Co., Ltd., priority 2022, dated 2024).
Converted amounts (≈) assume the structure as drawn.

Columns and labels:
[1] = Accelerated stability test; format: physicochemical; conditions: 40°C ± 2°C, relative humidity 75% ± 5%
[2] = Solubility in water, methanol and isopropanol
Procedure: The solubility in water, methanol, and isopropanol of the compounds of the present disclosure and the comparative compounds were measured separately.

[3] = tested on: histamine-induced asthma; assay: Antiasthmatic effect on histamine-induced asthma in guinea pigs (latency period); format: in vivo; conditions: 1 mg/kg oral gavage, sixty minutes after administration; histamine hydrochloride spray; no asthma within 8 minutes counted as 8 minutes; X±s, n = 5
[4] = tested on: isolated ileal smooth muscle; assay: Muscle tone of isolated ileal smooth muscle of guinea pigs, compound alone; conditions: Table 3, no histamine, X±s, n = 8
[5] = tested on: histamine; assay: Muscle tone of isolated ileal smooth muscle of guinea pigs contracted with histamine; conditions: Table 4; relative to tone after adding histamine; x±s, n = 8; 3 min
[6] = as above; conditions: Table 4; 3 minutes after adding 0.05 mL compound at maximum histamine contraction; x±s, n = 8

In the case of O=P(O)(O)OCCCCCN1CCC(=C2c3ccc(Cl)cc3CCc3cccnc32)CC1 [Compound IV-7], the Content ([1]; Month 0) was 99.6%, the Description ([1]; Month 0) was “White powder” and the Related substances ([1]; Month 0) was 0.03%. The Description ([1]; Month 1) was “White powder”, the Related substances ([1]; Month 1) was 0.06% and the Description ([1]; Month 2) was “White powder”. For the same compound, the Related substances ([1]; Month 2) was 0.09%, the Description ([1]; Month 3) was “White powder” and the Related substances ([1]; Month 3) was 0.13%. For the same compound, the Description ([1]; Month 6) was “White powder”, the Related substances ([1]; Month 6) was 0.28% and the remaining at 730 h ([1]; storage 75% relative humidity, Month 1, read-out: Content) was 99.6%. It also gave a remaining at 1460 h ([1]; storage 75% relative humidity, Month 2, read-out: Content) of 99.5%, a remaining at 2190 h ([1]; storage 75% relative humidity, Month 3, read-out: Content) of 99.5% and a remaining at 4380 h ([1]; storage 75% relative humidity, Month 6, read-out: Content) of 99.3%. For the same compound, the “solubility Isopropanol” value ([2]; in isopropanol) was 4 mg/mL (≈ 8.39 mM), the “solubility Methanol” value ([2]; in methanol) was 27 mg/mL (≈ 56.6 mM) and the “solubility Water” value ([2]; in water) was 287 mg/mL (≈ 602 mM). The “Post-administration latency period” value [3] was 367.32 ± 53.01 s, the “Smooth muscle tone (g) After administration” value ([4]; 5 minutes after adding the drug) was 1.16 ± 0.27 g and the “Antispasmodic percentage (%)” value ([4]; relative to tone before adding compound, 5 min) was 31.76±18.66%. The “Antispasmodic percentage (%)” value [5] was 66.76±19.32% and the “Smooth muscle tone (g) After administration” value [6] was 1.15 ± 0.23 g.
